Data: patent publication US20020082241A1, “Adenosine as antithrombotic” (priority 2000, published 2002)

How the values were obtained:
platelet aggregation = assay: ADP-activated platelet aggregation assay; assay type: cell-based
Protocol: To assay the platelet aggregation-inhibiting activity of the compound, a regular ADP-activated platelet aggregation assay was performed. The reagents used for conducting the assay were purchased from Sigma. […] The maximal inhibition activity was about 85%, which occurs at the concentration of the compound from 10 to 15 μg/ml blood.

[1] = biological target: T1, gpIIb/IIIa (binding of fibrinogen) (Homo sapiens, UniProt P05106+P08514); assay: competitive ELISA for inhibition of the binding of fibrinogen to gpIIb/IIIa; settings: samples 5-60 μg/ml; biotin-labeled fibrinogen 1.5 μg/ml; 37° C.; OD value; FIG. 8
T1 construct: The gpIIb/IIIa purified from platelet was coated on flat wells of a plastic 96-well plate; from tissue; host or cells: platelets
Protocol: A competitive ELISA assay for analyzing that the binding of fibrinogen to gpIIb/IIIa is inhibited was performed for comparative analysis, where the compound, commercial adenosine (a product from Sigma, Cat. A-9251, Lot. 18H0295) and ReoPro® (abciximab) (10 mg/ml; produced by Eli Lilly for laboratory use only, Lot. 97F03, which is a monoclonal antibody and an antagonist against gpIIb/IIIa) were tested. The gpIIb/IIIa purified from platelet was coated on flat wells of a plastic 96-well plate. Samples of each of the test compounds were prepared in a concentration in a range of 5-60 μg/ml. A solution of biotin-labeled fibrinogen was prepared in a concentration of 1.5 μg/ml. Prior to addition to the wells, each of the samples were individually mixed with an equal volume of the biotinylated fibrinogen. The competitive binding reaction in the plate was performed at 37° C. for 2 hours. After another 2 hours for incubation, strepavidin-conjugated alkaline phosphatase was added to each well of the plate. A substrate solution containing p-nitrophenyl phosphate was then added to each well for coloring by a conventional way. The capability of each tested compound in the inhibition of the binding of fibrinogen to gpIIb/IIIa was measured and recorded as OD value.

[2] = test system: thrombus formation in mesenteric vein; assay: thrombus formation in vivo in mesenteric vein of rats (electrical stimulation); settings: rat
Protocol: The thrombus formation in vivo in mesenteric vein of rats was used for evaluating an effect of the compound on the inhibition of venous thrombosis. In brief, groups of 3 male Wistar-derived rats, each weighing 60±10 gm, were used for each dosage test. The rats were anesthetized with phenobarbital sodium (50 mg/kg, i.p.), and paralyzed with succinylcholine chloride (2 mg/rat, i.p.). A mesenteric loop and vein was then exposed and mounted on a constructed platform. The exposed area was superfused with a normal saline at 37° C. except during electrode placement and stimulation. With the aid of a dissecting microscope and micromanipulator, a monopolar platinum electrode was brought into and contact with the vein. […] The relative venous occlusion (a measured degree of thrombus formation) was determined as a percentage of venous diameter (0.36 to 0.3 8 mm) and was recorded at 10 seconds (baseline control score) and at 1 minute interval for 20 minutes. […] In the vehicle-treated animals, the 20-minute interval recorded values were averaged, which attains a value ranging from 45 to 55% of the interval vein diameter. Consequently, the antithrombic activity of the compound was calculated as % of inhibition relative to the vehicle-treated control animals. […]

[3] = acute toxicity in adult rats, single intravenous dose; assay type: in vivo; settings: rat, single i.v. dose, up to approximately 70 mg/kg (69.55±5.65 mg/kg), necropsy Day 8
Protocol: The potential acute toxicity of the compound in adult rats when administered intravenously as a single dose was examined. Twenty animals were divided into five treatment groups of two males and two females each as follows: Group 1: vehicle control; Group 2: 1 mg of the compound/kg body weight of animal; Group 3: 10 mg of the compound/kg body weight of animal; Group 4: 50 mg of the compound/kg body weight of animal; and Group 5: 100 mg of the compound/kg body weight of animal. The tested article was reconstituted with 0.9% sodium chloride injection to provide 0.64±0.05 mg/kg (Group 2), 6.89±1.13 mg/kg (Group 3), 35.02±5.02 mg/kg (Group 4) and 69.55±5.65 mg/kg (Group 5). Animals were dosed on Day 1, and scheduled necropsies conducted on Day 8 included gross examination of organs and tissues, organ weight measurements, and tissue collection for potential histopathological examination. It was found in the compound treatment groups that there was no change in clinical observations, serum chemistry, hematology, gross examination, body weight and organ weight (absolute and relative) that could be attributed to the compound.

[4] = biological target: T2, platelet membrane receptor protein gpIIb/IIIa (Homo sapiens, UniProt P05106+P08514); assay: gpIIb/IIIa binding assay with compound spotted on plate and labeled gpIIb/IIIa; settings: concentration of the compound below 10 μg/ml; serial dilution 0 to 50 μg/ml; FIG. 5
T2 construct: platelet membrane receptor protein gpIIb/IIIa was purified from platelets; from tissue; host or cells: platelets
Protocol: For conducting the target-binding assay, platelet membrane receptor protein gpIIb/IIIa was purified from platelets, and its purity was determined by SDS-PAGE and silver staining. The purified protein gpIIb/IIIa was labeled with biotin as described in the conventional protocol. The 120 collected samples were individually coated onto a 384-well plastic plate. The biotin-labeled protein gpIIb/IIIa was added to the sample-coated plastic plate and was incubated with the coated samples at room temperature for 30 minutes. Each well was then washed with TBST buffer for 3 times, to which the extravidin-conjugated alkaline phosphatase was added, and each well was further incubated for 30 minutes. The previous washing step was repeated and each well was then colored with substrate p-nitrophenyl phosphate. The absorption for each well at a wavelength of 405 nm was determined by an automatic ELISA reader (Dynax). […] The compound “adenosine” obtained from Example 4 was used as a standard for the characterization of each batch preparation of the compound. The compound, when purified, was collected, dried and used to verify its gpIIb/IIIa binding capacity. For conducting the binding assay, the compound was formulated into an aqueous solution, and a serial dilution for forming a final concentration of 0 to 50 μg/ml was made. […]

T1 sequence (P08514 32-887 limits assumed): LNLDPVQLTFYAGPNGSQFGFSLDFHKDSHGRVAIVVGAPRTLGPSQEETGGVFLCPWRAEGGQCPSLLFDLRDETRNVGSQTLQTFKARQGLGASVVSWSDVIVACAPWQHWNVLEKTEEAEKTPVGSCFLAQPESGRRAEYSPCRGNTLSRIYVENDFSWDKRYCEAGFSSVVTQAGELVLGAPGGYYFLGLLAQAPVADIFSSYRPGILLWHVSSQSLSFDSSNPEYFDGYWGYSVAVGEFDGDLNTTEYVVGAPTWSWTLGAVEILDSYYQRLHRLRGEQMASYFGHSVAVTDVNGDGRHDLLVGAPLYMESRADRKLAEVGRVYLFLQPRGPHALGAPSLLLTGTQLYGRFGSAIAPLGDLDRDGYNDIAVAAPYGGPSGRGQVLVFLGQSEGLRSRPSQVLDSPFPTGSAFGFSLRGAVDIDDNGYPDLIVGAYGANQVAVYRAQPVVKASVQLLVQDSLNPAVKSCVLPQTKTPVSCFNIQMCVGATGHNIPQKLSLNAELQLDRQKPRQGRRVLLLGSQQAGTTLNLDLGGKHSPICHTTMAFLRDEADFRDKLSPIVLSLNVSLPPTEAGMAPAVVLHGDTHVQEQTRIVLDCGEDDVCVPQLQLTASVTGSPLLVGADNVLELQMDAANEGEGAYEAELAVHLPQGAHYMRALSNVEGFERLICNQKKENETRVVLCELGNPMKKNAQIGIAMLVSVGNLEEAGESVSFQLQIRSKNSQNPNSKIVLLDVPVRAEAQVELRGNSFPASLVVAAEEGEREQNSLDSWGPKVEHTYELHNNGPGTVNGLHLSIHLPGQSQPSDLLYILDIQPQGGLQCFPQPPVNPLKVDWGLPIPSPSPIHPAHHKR
T1 sequence (P08514 891-1039 limits assumed): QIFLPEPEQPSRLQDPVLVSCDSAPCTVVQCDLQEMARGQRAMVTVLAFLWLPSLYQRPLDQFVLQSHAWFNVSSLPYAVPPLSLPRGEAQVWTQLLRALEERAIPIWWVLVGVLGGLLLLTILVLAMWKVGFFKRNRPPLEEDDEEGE
T1 sequence (P05106 27-788): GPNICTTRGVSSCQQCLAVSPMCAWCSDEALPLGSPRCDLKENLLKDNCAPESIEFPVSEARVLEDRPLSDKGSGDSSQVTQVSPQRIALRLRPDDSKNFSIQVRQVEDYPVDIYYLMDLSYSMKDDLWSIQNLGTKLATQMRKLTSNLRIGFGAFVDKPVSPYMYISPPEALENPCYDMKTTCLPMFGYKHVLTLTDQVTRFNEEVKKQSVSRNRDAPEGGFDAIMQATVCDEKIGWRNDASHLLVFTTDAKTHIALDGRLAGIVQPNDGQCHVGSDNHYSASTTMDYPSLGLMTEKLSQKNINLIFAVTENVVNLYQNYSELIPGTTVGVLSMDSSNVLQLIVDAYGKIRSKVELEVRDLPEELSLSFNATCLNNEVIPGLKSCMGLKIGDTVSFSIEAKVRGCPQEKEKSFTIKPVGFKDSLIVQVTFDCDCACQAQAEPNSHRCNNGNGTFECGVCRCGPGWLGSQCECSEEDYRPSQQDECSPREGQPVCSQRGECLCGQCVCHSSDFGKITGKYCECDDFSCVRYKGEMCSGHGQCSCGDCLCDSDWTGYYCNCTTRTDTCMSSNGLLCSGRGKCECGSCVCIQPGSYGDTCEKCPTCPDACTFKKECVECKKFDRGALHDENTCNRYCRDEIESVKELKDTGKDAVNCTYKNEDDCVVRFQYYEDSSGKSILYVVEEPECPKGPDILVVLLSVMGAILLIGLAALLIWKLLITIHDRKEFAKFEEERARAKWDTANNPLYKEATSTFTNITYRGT
T2 sequence (P08514 32-887 limits assumed): as the sequence (P08514 32-887 limits assumed) above
T2 sequence (P08514 891-1039 limits assumed): as the sequence (P08514 891-1039 limits assumed) above
T2 sequence (P05106 27-788): as the sequence (P05106 27-788) above

Structure (SMILES): Nc1ncnc2c1ncn2[C@@H]1O[C@H](CO)[C@@H](O)[C@H]1O [the compound, adenosine]
- inhibition at 17.4 µg/mL (platelet aggregation; Platelet, 17.4 μg/ml, occurring from the 14th to 16th minutes, FIG. 6B, read-out: maximal inhibition activity on platelet aggregation (time course)): ~85%
- maximal inhibition activity on platelet aggregation (dose response) (platelet aggregation; at concentration from 10 to 15 μg/ml blood, FIG. 6A): about 85%
- inhibition of the binding of fibrinogen to gpIIb/IIIa, compared with ReoPro (abciximab) [1]: superior effect
- inhibition of the binding of fibrinogen to gpIIb/IIIa, the compound compared with commercial adenosine [1]: quite similar function
- antithrombic activity relative to vehicle treated group, i.v. ([2]; 400 μg/rat i.v. 5 minutes before stimulation, at 7, 11, 12, 13, 14, 15, 16, 17 and 19 minutes after electric stimulation, FIG. 7A): significance relative to the vehicle treated group
- antithrombic activity relative to vehicle treated group, oral ([2]; 4 mg/rat oral feeding 1 hour prior to stimulation, observed at 14, 15, 16, 17, 18 and 20 minutes, FIG. 7C): significant antithrombic activity
- acute toxicity [3]: No signs of overt toxicity
- acute toxicity ([3]; listed as adenosine): no acute toxicity
- binding to gpIIb/IIIa, % of the maximal binding [4]: 80%
